Experiments:
[1] = test system: parakeratosis caused by oleic acid; experiment: Test on parakeratosis inhibitory action (oleic acid applied on the back of a hairless mouse); type: in vivo; conditions: for Incidence of Parakeratosis (Average of 4 mice): 100 μL, 3 days, grades of 1 to 4; for Effect on parakeratosis caused by oleic acid (in words): summary of Tables 2 and 3, hairless mouse
Protocol: An aqueous solution containing 3% each of GABA, glycine, D-glutamic acid and L-glutamic acid was prepared, and pH of each solution was adjusted to nutrality, if necessary. An aqueous solution containing 10 mM each of GABA, bicuculline methobromide (antagonist to GABA receptor type A), MK-801, muscimol, isogubacin, ATP, suramin, PPADS and TNP-ATP was also prepared.
Thereafter, 100 μL of sample solution or reference solution was applied. This procedure was repeated for 3 days, and the keratin layer on the back was peeled with a tape. The nucleus of the keratin layer was stained with hematoxylin, the number of nuclear cells was counted under a microscope, and the results were evaluated in four grades of 1 to 4.

pores = experiment: Test on pore-shrinking action (replicas of cheek pores); conditions: for Decision of Replica of Pores (Average of n = 5): 3% sample solution on cheek twice a day for 1 month, difference of scores (13 grades of 1 to 13) before and after the test; for Pore-shrinking effect (in words): summary of Table 4, 3% solutions
Epidermal keratinocyte = experiment: Excitatory action test of cells with oleic acid (intracellular calcium, fura-2-AM); type: cell-based; conditions: summary of Table 1
Protocol: Epidermal keratinocyte was cultivated on an appropriate medium, for example, KGM medium, according to the conventional method. The cultured cells were seeded on a cover glass chamber and cultivated there a day before measuring calcium ions. An appropriate buffer solution, for example BSS (balanced salt solution) and a calcium sensitive fluorescent pigment (fura-2-AM) were added in the cultured cell at a concentration of about 2 μM on the next day, and the fluorescent pigment was allowed to be incorporated into the cell by incubating under an appropriate condition (for example 30 minutes at 37° C.). After completing intake of the pigment, the same buffer solution (fresh BSS) was added. […] The same measurement was carried out by adding only the same buffer solution (BSS). The fluorescence intensity at 340 nm was divided by the fluorescence intensity at 380 nm for determining the calcium concentration according to the conventional method.

[2] = Application Test of 3% Oleic Acid Solution, sample 10 mM, water reference 2.0
[3] = Application Test of 30% Oleic Acid Solution, sample 3% solution, water reference 2.5

NCc1cc(=O)[nH]o1 [Muscimol, muscimol]
Incidence of Parakeratosis (Average of 4 mice) [1, 2]: 1.3
Effect on parakeratosis caused by oleic acid (in words) [1]: improved parakeratosis

trinitrophenyl-ATP [TNP-ATP]
Incidence of Parakeratosis (Average of 4 mice) [1, 2]: 1.5
Effect on parakeratosis caused by oleic acid (in words) [1]: improved parakeratosis

Cc1ccc(C(=O)Nc2ccc(S(=O)(=O)O)c3cc(S(=O)(=O)O)cc(S(=O)(=O)O)c23)cc1NC(=O)c1cccc(NC(=O)Nc2cccc(C(=O)Nc3cc(C(=O)Nc4ccc(S(=O)(=O)O)c5cc(S(=O)(=O)O)cc(S(=O)(=O)O)c45)ccc3C)c2)c1 [Suramin, suramin]
Incidence of Parakeratosis (Average of 4 mice) [1, 2]: 1.5
Effect on parakeratosis caused by oleic acid (in words) [1]: improved parakeratosis

O=C(O)C1=CCNCC1 [Isogubacin, isogubacin]
Incidence of Parakeratosis (Average of 4 mice) [1, 2]: 1.3
Effect on parakeratosis caused by oleic acid (in words) [1]: improved parakeratosis

C[C@]12N[C@H](Cc3ccccc31)c1ccccc12 [MK-801, dizocylpin]
Incidence of Parakeratosis (Average of 4 mice) [1, 2]: 1.0
Effect on parakeratosis caused by oleic acid (in words) [1]: improved parakeratosis

NCC(=O)O [Glycine, glycine]
Decision of Replica of Pores (Average of n = 5) (pores): −1.2
Pore-shrinking effect (in words) (pores): excellent pore-shrinking effects
Incidence of Parakeratosis (Average of 4 mice) [1, 3]: 1.3
Effect on parakeratosis caused by oleic acid (in words) [1]: improved parakeratosis

CCCCCCCC/C=C\CCCCCCCC(=O)O [Oleic Acid, oleic acid]
Excitatory function of the cell (in words) (Epidermal keratinocyte): has an excitatory function

N[C@@H](CCC(=O)O)C(=O)O [L-Glutamic Acid, L-glutamic acid]
Incidence of Parakeratosis (Average of 4 mice) [1, 3]: 3.0
Effect on parakeratosis caused by oleic acid (in words) [1]: worsens parakeratosis

Nc1ncnc2c1ncn2[C@@H]1O[C@H](COP(=O)(O)OP(=O)(O)OP(=O)(O)O)[C@@H](O)[C@H]1O [ATP]
Incidence of Parakeratosis (Average of 4 mice) [1, 2]: 2.3
Effect on parakeratosis caused by oleic acid (in words) [1]: worsens parakeratos is

Cc1nc(N=Nc2ccc(S(=O)(=O)O)cc2S(=O)(=O)O)c(COP(=O)(O)O)c(C=O)c1O [PPADS, pyridoxal phosphate-6-azophenyl-2′,4′-disulfonic acid]
Incidence of Parakeratosis (Average of 4 mice) [1, 2]: 1.8
Effect on parakeratosis caused by oleic acid (in words) [1]: improved parakeratosis

NCCCC(=O)O [GABA, γ-aminobutyric acid]
Decision of Replica of Pores (Average of n = 5) (pores): −1.0
Pore-shrinking effect (in words) (pores): excellent pore-shrinking effects
Incidence of Parakeratosis (Average of 4 mice) [1, 2]: 1.5
Incidence of Parakeratosis (Average of 4 mice) [1, 3]: 1.5
Effect on parakeratosis caused by oleic acid (in words) [1]: improved parakeratosis

C[N+]1(C)CCc2cc3c(cc2[C@H]1[C@@H]1OC(=O)c2c1ccc1c2OCO1)OCO3.[Br-] [bicuculline methobromide]
Effect on parakeratosis caused by oleic acid (in words) [1]: inhibited parakeratosis inhibitory action

N[C@H](CCC(=O)O)C(=O)O [D-Glutamic Acid, D-glutamic acid]
Decision of Replica of Pores (Average of n = 5) (pores): −0.4
Pore-shrinking effect (in words) (pores): excellent pore-shrinking effects
Incidence of Parakeratosis (Average of 4 mice) [1, 3]: 2.0
Effect on parakeratosis caused by oleic acid (in words) [1]: improved parakeratosis
